Earlier results, collected in patent US6737441B2, “Treatment of helicobacter with isothiocyanates” (priority 2000, dated 2004).

Conditions: in cell culture; cited from earlier work

**Q.** With C[S+]([O-])CCCCCN=C=S (centres unmarked) [alyssin] as the molecule, how does the “activity as inducers relative to sulforaphane and sulforaphene” value read?
**A.** Its value is “less active”.

**Q.** For CS(=O)(=O)CCCN=C=S [cheirolin], which “activity as inducers relative to sulforaphane and sulforaphene” value is on record?
**A.** Its value is “less active”.

**Q.** Which “activity as inducers relative to sulforaphane and sulforaphene” value does the source give for CS(=O)(=O)CCCCN=C=S [erysolin] here?
**A.** The value was “less active”.

**Q.** For C[S+]([O-])CCCN=C=S (centres unmarked) [iberin], which “activity as inducers relative to sulforaphane and sulforaphene” value is on record?
**A.** Its value is “less active”.

**Q.** With CSCCCN=C=S [iberverin] as the molecule, how does the “activity as inducers relative to sulforaphane and sulforaphene” value read?
**A.** Its value is “less active”.
